Measurements published in US10676721B2, “Bacteriophages expressing antimicrobial peptides and uses thereof” (priority 2009, dated 2020).
Peptide text beside a SMILES is read from it.

Experiment: Toxicity of AMPs (Table 3, method not described)
Design: unit not given here
Conditions: two values per AMP

Row | Compound | Toxicity
1 | CC[C@H](C)[C@H](NC(=O)[C@H](C)NC(=O)[C@H](CCCCN)NC(=O)CNC(=O)[C@H](C)NC(=O)[C@H](Cc1c[nH]cn1)NC(=O)[C@@H](NC(=O)[C@H](C)NC(=O)CNC(=O)[C@H](CCCCN)NC(=O)[C@@H](NC(=O)[C@H](CC(C)C)NC(=O)[C@H](Cc1c[nH]c2ccccc12)NC(=O)CNC(=O)[C@H](Cc1ccccc1)NC(=O)[C@@H](N)Cc1ccccc1)[C@@H](C)CC)[C@@H](C)CC)C(=O)N[C@@H](Cc1c[nH]cn1)C(=O)NCC(=O)N[C@@H](CC(C)C)C(=O)N[C@H](C(=O)N[C@@H](Cc1c[nH]cn1)C(=O)N[C@@H](CCCNC(=N)N)C(=O)N[C@@H](CCCNC(=N)N)C(=O)N[C@@H](CCCNC(=N)N)C(=O)N[C@@H](Cc1c[nH]cn1)C(=O)O)[C@@H](C)CC [J589_J6] (H-FFGWLIKGAIHAGKAIHGLIHRRRH-OH) | 16
2 | CC(C)C[C@H](NC(=O)[C@H](CC(C)C)NC(=O)[C@H](Cc1ccccc1)NC(=O)[C@H](CC(C)C)NC(=O)[C@H](CC(C)C)NC(=O)[C@@H](N)CC(C)C)C(=O)N[C@@H](CCCCN)C(=O)N[C@@H](CCCCN)C(=O)N[C@@H](CCCNC(=N)N)C(=O)N[C@@H](CCCCN)C(=O)N[C@@H](CCCCN)C(=O)N[C@@H](CCCNC(=N)N)C(=O)N[C@@H](CCCCN)C(=O)N[C@@H](Cc1ccc(O)cc1)C(=O)O [J589_D1] (H-LLLFLLKKRKKRKY-OH) | 512
3 | CC[C@H](C)[C@H](NC(=O)[C@H](C)NC(=O)[C@@H]1CCCN1C(=O)CNC(=O)[C@H](C)NC(=O)[C@H](CCCCN)NC(=O)[C@@H](NC(=O)[C@H](CC(C)C)NC(=O)CNC(=O)[C@H](CC(=O)O)NC(=O)[C@H](CCCNC(=N)N)NC(=O)[C@@H](NC(=O)[C@H](CC(N)=O)NC(=O)[C@H](CCC(N)=O)NC(=O)CNC(=O)[C@@H](NC(=O)[C@H](CCCNC(=N)N)NC(=O)[C@H](CCC(=O)O)NC(=O)[C@@H](NC(=O)[C@H](CCCCN)NC(=O)[C@H](CCCCN)NC(=O)[C@H](Cc1ccccc1)NC(=O)[C@H](Cc1ccccc1)NC(=O)[C@H](CCCCN)NC(=O)[C@H](Cc1c[nH]c2ccccc12)NC(=O)[C@@H](N)CCCNC(=N)N)[C@@H](C)CC)C(C)C)C(C)C)[C@@H](C)CC)C(=O)N[C@@H](CCC(N)=O)C(=O)N[C@H](C(=O)N[C@@H](CC(C)C)C(=O)NCC(=O)N[C@@H](C)C(=O)N[C@@H](C)C(=O)N[C@@H](CCCCN)C(=O)N[C@@H](C)C(=O)N[C@@H](CC(C)C)C(=O)O)C(C)C [J6090_C11] (H-RWKFFKKIERVGQNVRDGLIKAGPAIQVLGAAKAL-OH) | 256
4 | CC[C@H](C)[C@H](NC(=O)[C@H](CCCCN)NC(=O)[C@H](CC(C)C)NC(=O)[C@H](C)NC(=O)[C@H](CO)NC(=O)CNC(=O)[C@H](CC(C)C)NC(=O)[C@@H](N)Cc1c[nH]c2ccccc12)C(=O)NCC(=O)N[C@@H](C)C(=O)N[C@@H](CCCCN)C(=O)N[C@@H](CC(C)C)C(=O)N[C@@H](CC(C)C)C(=O)N1CCC[C@H]1C(=O)N[C@@H](CO)C(=O)N[C@H](C(=O)N[C@H](C(=O)NCC(=O)N[C@@H](CC(C)C)C(=O)N[C@@H](Cc1ccccc1)C(=O)N[C@@H](CCC(N)=O)C(=O)N[C@@H](CCCCN)C(=O)N[C@@H](CCCCN)C(=O)N[C@@H](CCCCN)C(=O)N[C@@H](CCCCN)C(=O)O)C(C)C)C(C)C [J589_J5] (H-WLGSALKIGAKLLPSVVGLFQKKKK-OH) | 32
5 | CC[C@H](C)[C@H](NC(=O)[C@H](CCCCN)NC(=O)[C@H](CC(C)C)NC(=O)[C@H](C)NC(=O)[C@H](CO)NC(=O)CNC(=O)[C@H](CC(C)C)NC(=O)[C@@H](N)Cc1c[nH]c2ccccc12)C(=O)NCC(=O)N[C@@H](C)C(=O)N[C@@H](CCCCN)C(=O)N[C@@H](CC(C)C)C(=O)N[C@@H](CC(C)C)C(=O)N1CCC[C@H]1C(=O)N[C@@H](CO)C(=O)N[C@H](C(=O)N[C@H](C(=O)NCC(=O)N[C@@H](CC(C)C)C(=O)N[C@@H](Cc1ccccc1)C(=O)N[C@@H](CCCCN)C(=O)N[C@@H](CCCCN)C(=O)N[C@@H](CCCCN)C(=O)N[C@@H](CCCCN)C(=O)N[C@@H](CCC(N)=O)C(=O)O)C(C)C)C(C)C [J6123_D7, Ponericin W1] (H-WLGSALKIGAKLLPSVVGLFKKKKQ-OH) | 64
6 | CC[C@H](C)[C@H](NC(=O)CN)C(=O)N[C@@H](Cc1c[nH]c2ccccc12)C(=O)NCC(=O)N[C@H](C(=O)N[C@@H](CC(C)C)C(=O)N[C@@H](C)C(=O)N[C@@H](CCCCN)C(=O)N[C@H](C(=O)NCC(=O)N[C@H](C(=O)N[C@@H](CCCCN)C(=O)N[C@@H](C)C(=O)N[C@H](C(=O)N1CCC[C@H]1C(=O)N[C@@H](CCCNC(=N)N)C(=O)N[C@H](C(=O)N[C@H](C(=O)N[C@@H](CO)C(=O)N[C@@H](CCSC)C(=O)N[C@@H](CC(C)C)C(=O)N[C@@H](CCCCN)C(=O)N[C@@H](CCCCN)C(=O)N[C@@H](CCCCN)C(=O)N[C@@H](CCCCN)C(=O)N[C@@H](CCC(N)=O)C(=O)O)[C@@H](C)CC)C(C)C)C(C)C)[C@@H](C)CC)[C@@H](C)CC)[C@@H](C)O [J589_K4, Ponericin W3] (H-GIWGTLAKIGIKAVPRVISMLKKKKQ-OH) | 64
7 | CC[C@H](C)[C@H](NC(=O)[C@H](CC(C)C)NC(=O)[C@H](C)NC(=O)CNC(=O)[C@H](Cc1c[nH]c2ccccc12)NC(=O)[C@@H](N)Cc1ccccc1)C(=O)N[C@@H](CCCCN)C(=O)NCC(=O)N[C@@H](C)C(=O)N[C@@H](C)C(=O)N[C@@H](CCCCN)C(=O)N[C@@H](CC(C)C)C(=O)N[C@H](C(=O)N1CCC[C@H]1C(=O)N[C@@H](CO)C(=O)N[C@H](C(=O)N[C@H](C(=O)NCC(=O)N[C@@H](CC(C)C)C(=O)N[C@@H](Cc1ccccc1)C(=O)N[C@@H](CCCCN)C(=O)N[C@@H](CCCCN)C(=O)N[C@@H](CCCCN)C(=O)N[C@@H](CCC(N)=O)C(=O)O)C(C)C)C(C)C)[C@@H](C)CC [J6084_H2, Ponericin W5] (H-FWGALIKGAAKLIPSVVGLFKKKQ-OH) | 32
8 | CC[C@H](C)[C@H](NC(=O)CNC(=O)[C@H](CCCNC(=N)N)NC(=O)[C@H](Cc1ccccc1)NC(=O)[C@@H](NC(=O)[C@H](Cc1c[nH]cn1)NC(=O)[C@H](Cc1c[nH]cn1)NC(=O)[C@H](Cc1ccccc1)NC(=O)[C@@H](N)Cc1ccccc1)[C@@H](C)CC)C(=O)N[C@H](C(=O)N[C@@H](Cc1c[nH]cn1)C(=O)N[C@H](C(=O)NCC(=O)N[C@@H](CCCCN)C(=O)N[C@H](C(=O)N[C@H](C(=O)N[C@@H](Cc1c[nH]cn1)C(=O)N[C@@H](CCCCN)C(=O)N[C@@H](CC(C)C)C(=O)N[C@H](C(=O)N[C@H](C(=O)NCC(=O)O)[C@@H](C)O)C(C)C)[C@@H](C)CC)[C@@H](C)O)C(C)C)C(C)C [J589_H3] (H-FFHHIFRGIVHVGKTIHKLVTG-OH) | 128
9 | CC[C@H](C)[C@H](NC(=O)[C@H](CCCCN)NC(=O)[C@H](CCCCN)NC(=O)[C@H](Cc1ccccc1)NC(=O)[C@H](CC(C)C)NC(=O)[C@H](CCCCN)NC(=O)[C@H](Cc1c[nH]c2ccccc12)NC(=O)[C@@H](N)CCCCN)C(=O)N[C@@H](CC(C)C)C(=O)N[C@@H](CCCCN)C(=O)N[C@@H](Cc1ccccc1)C(=O)N[C@@H](CC(C)C)C(=O)N[C@@H](Cc1c[nH]cn1)C(=O)N[C@@H](CC(C)C)C(=O)N[C@@H](C)C(=O)N[C@@H](CCCCN)C(=O)N[C@@H](CCCCN)C(=O)N[C@@H](Cc1ccccc1)C(=O)O [J6084_F10] (H-KWKLFKKILKFLHLAKKF-OH) | 32
